We go through three compounds from US20060166996A1, “Phthalazine derivatives as phosphodiesterase 4 inhibitors” (Zambon Group S.P.A., priority 2002, published 2006).

Molecules are shown by their SMILES. Bounds are passed on as bounds.

One experiment has as its target T1, PDE 2 (Rattus norvegicus, UniProt Q01062).
T1 construct: Fractions containing PDE 2 enzyme activity were pooled; endogenous in cells; host or cells: PC12 cells (Istituto Zooprofilattico Brescia)
T1 sequence (Q01062 1-928): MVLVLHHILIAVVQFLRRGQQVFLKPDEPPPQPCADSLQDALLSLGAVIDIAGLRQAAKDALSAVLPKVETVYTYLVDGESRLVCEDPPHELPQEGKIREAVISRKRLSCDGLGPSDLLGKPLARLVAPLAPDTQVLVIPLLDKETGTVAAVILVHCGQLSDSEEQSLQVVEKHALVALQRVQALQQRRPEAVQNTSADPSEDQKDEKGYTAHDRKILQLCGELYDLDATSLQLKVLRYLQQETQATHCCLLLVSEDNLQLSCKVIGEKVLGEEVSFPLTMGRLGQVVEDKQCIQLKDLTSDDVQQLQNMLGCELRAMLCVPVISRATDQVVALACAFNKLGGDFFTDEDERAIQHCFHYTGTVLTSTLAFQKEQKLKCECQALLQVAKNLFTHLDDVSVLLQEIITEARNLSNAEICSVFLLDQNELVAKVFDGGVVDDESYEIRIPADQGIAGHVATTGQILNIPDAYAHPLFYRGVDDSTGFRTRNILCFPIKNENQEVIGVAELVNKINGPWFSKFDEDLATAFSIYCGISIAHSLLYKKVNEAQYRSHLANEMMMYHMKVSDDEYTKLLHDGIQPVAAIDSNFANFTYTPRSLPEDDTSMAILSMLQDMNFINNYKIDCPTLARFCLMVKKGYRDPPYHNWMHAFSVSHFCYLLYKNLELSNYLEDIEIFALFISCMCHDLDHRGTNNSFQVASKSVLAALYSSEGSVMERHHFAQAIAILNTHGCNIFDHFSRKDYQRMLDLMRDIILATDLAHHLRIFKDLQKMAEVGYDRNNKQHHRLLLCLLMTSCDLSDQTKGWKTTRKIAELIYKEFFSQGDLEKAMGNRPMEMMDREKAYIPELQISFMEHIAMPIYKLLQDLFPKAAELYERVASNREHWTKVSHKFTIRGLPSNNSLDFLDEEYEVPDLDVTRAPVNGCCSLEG
The experiment can be described thus: PDE 2 enzyme inhibition (SPA). It counts as biochemical. Conditions: PDE 2 from murine PC12 cells; read-out: PDE 2 IC 50. Here is the method:
PDE 2 was purified from murine PC12 cells according to Whalin et al. (Molecular Pharmacol. 1991, 39, 711-717).
PC12 cells from Istituto Zooprofilattico Brescia (Italy) were maintained in […] flasks at 37° C. and 5% CO2 in DMEM containing 5% FCS, 15% horse serum, 1% penicillin, 1% streptomycin and 1% glutamine.
The cells were expanded paying attention to split them only at reached confluency.
After washing the cells were detached with 0.05% trypsin/0.02%EDTA and collected in a clean test tube.
After centrifugation, the cells were suspended in buffer containing Bis-Tris 20 mM, EDTA 2 mM, 2-mercaptoethanol 5 mM, leupeptin 1 μM, pepstatin A 1 μM, PMSF 100 μM, pH 6.5, and homogenised using a Polytron homogeniser.
After centrifugation, the supernatant fraction was applied to a UNO Q-12 column connected to a Biologic Chromatography system (FPLC, BIO RAD).
PDE 2 enzyme was eluted with a linear 0.05-1M sodium acetate gradient and elution fractions were collected for PDE 2 enzyme activity assay.
Fractions containing PDE 2 enzyme activity were pooled, dialysed overnight against distilled water and concentrated 10 times by an Amicon filtration system (using YM10 membrane filter).
Ethylene glycol was added to a final concentration of 30% v/v and the solution stored at −20° C.
Enzymatic activity was stable for several weeks under these conditions.
PDE 2 activity assay was performed using Scintillation Proximity Assay (SPA) Amersham kit consisting of tracer ^3H-cAMP, PDE assay buffer (10×solution: 500 mM TRIS/HCl pH 7.5, 83 mM MgCl2 and 17 mM EGTA) and Yttrium SPA PDE beads (containing 18 mM zinc sulphate).
(§1) The radioactivity of the beads was measured using a scintillation counter (Packard model MINAXI β TRI-CARB 4000 SERIES).

The target in the next experiment is T2, PDE 4 enzyme.
T2 construct: % at 10^−7; other: at 10^−7; PDE 4 from U937 cell line; other: PDE 4 isolated from U937 cell line; SPA with 3H-cAMP
Nature of the experiment: PDE 4 enzyme inhibition (SPA). As to conditions: PDE 4 isolated from U937 cell line; SPA with 3H-cAMP. It counts as biochemical. Here is the method:
a) PDE 4 Enzyme Purification
PDE 4 enzyme was isolated from U937 cell line according to the method of Nielson et al. (J. Allergy Clin. Immunol. 1990, vol. 86, pages 801-807) partially modified for the FPLC technique (Fast Protein Liquid Chromatography).
U-937cell line (Istituto Zooprofilattico Sperimentale, Brescia, Italy) was maintained in RPMI 1640, with 10% foetal calf serum and 2 mM glutamine, at a cell density between 1×10^6 and 8×10^6 cells per ml in an incubator at 37° C. with 5% CO2.
U937 suspension was homogenised in a buffer containing 10 mM TRIS (tri-(hydroxymethyl)-aminomethane), 5 mM MgCl2, 4 mM EGTA (ethyleneglycol-bis-(β-aminoethylether)-N,N,N′N′-tetra-acetic acid), 5 mM […]-mercaptoethanol, 1 μM leupeptin, 1 μM pepstatin, 1% TRITON x-100, and 100 μM phenylmethyl sulfonyl fluoride (PMSF) at pH 7.8.
The homogenate was centrifuged and the supernatant was used for the purification of the PDE 4 enzyme; it was seeded on a column connected to a biologic chromatography system (FPLC, BIO RAD).
PDE 4 enzyme was eluted with a linear gradient, from 0.05 M to 1 M of sodium acetate, and elution fractions were collected for PDE4 activity assay.
The fractions containing PDE4 activity were collected and, after an overnight dialysis against water to remove sodium acetate, were concentrated to 30% volume with an Amicon filtration system (using YM10 membrane filter).
Ethylene glycol (30% v/v) was added and the sample was stored at −20° C. in a single aliquot until the use.
PDE 4 activity assay was performed using Scintillation Proximity Assay (SPA) Amershan kit consisting of tracer ^3H-cAMP, PDE assay buffer (10×solution: 500 mM TRIS/HCl pH 7.5, 83 mM MgCl2 and 17 mM EGTA) and Yttrium SPA PDE beads (containing 18 mM zinc sulphate).
as §1
The IC50 values were calculated from concentration-inhibition curves by non linear regression analysis using the program ORIGIN 3.5 (MICROCAL SOFTWARE INC.) and each fitting was the mean±SEM of 3 experiments using different PDE 4 preparations.

`O=C(O)c1cccc(-c2nnc(Cc3c(Cl)cncc3Cl)c3ccc(OC(F)F)cc23)c1` [Compound 8, 3-[4-(3,5-dichloro-pyridin-4-ylmethyl)-7-difluoromethoxy-phthalazin-1-yl]-benzoic Acid]: on PDE 2, the IC50 was more than 10000 nM. Turning to `COc1ccc2c(Cc3c(Cl)cncc3Cl)nnc(-c3cccc(C(=O)O)c3)c2c1` [Compound 2, 3-[4-(3,5-dichloro-pyridin-4-ylmethyl)-7-methoxy-phthalazin-1-yl]-benzoic Acid], the figures for the IC50 at PDE 4 enzyme and on PDE 2 were 37 nM and more than 10000 nM, respectively. With `COc1ccc2c(Cc3c(Cl)cncc3Cl)nnc(-c3sccc3C(=O)O)c2c1` [Compound 10, 2-[4-(3,5-dichloro-pyridin-4-ylmethyl)-7-methoxy-phthalazin-1-yl]-thiophene-3-carboxylic Acid], the IC50 is 48 nM against PDE 4 enzyme and more than 10000 nM on PDE 2.
